# From paper PMC12524942, “Efficient Hydrolysis of Dichlorvos in Water by Stenotrophomonas acidaminiphila G1 and Methyl Parathion Hydrolase” (International Journal of Molecular Sciences, 2025)
# Target: T1, MPD (methyl parathion hydrolase) (Stenotrophomonas sp. YC-1, UniProt Q0PWQ4)
# T1 construct: full ORF (primers from […] to stop; locus Chr1:1174990-1175985, 996 bp), pET28a EcoRI/HindIII, His tag, E. coli BL21(DE3); 331 residues per monomer
# Assay: UPLC of residual DDVP, Michaelis-Menten fit
# Type: biochemical
# Settings: 37 °C, 1 min; DDVP 0.01 to 0.04 mM; enzyme refolded from urea
# T1 sequence (Q0PWQ4 entry or part of it): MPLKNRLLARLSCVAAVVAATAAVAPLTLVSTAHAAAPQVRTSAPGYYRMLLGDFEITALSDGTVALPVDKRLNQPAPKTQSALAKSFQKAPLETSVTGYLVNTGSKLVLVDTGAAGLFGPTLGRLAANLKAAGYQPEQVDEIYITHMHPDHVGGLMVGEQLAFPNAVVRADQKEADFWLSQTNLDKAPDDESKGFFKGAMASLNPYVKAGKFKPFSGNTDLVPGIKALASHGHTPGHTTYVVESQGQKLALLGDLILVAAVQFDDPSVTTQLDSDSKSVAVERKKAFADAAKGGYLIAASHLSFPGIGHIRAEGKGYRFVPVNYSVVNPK
compound,measurement,value
"COP(=O)(OC)OC=C(Cl)Cl [DDVP, Dichlorvos]",Km,99 µM
